Results published in patent US12644143B2, “Method for the determination of antibiotic susceptibility through stimulated Raman metabolic imaging” (priority 2017, dated 2026).
Values after ≈ are worked out from the molar mass of the structure shown.

Legend:
Type in all cases: cell-based
[1] = system: E. faecalis 31970 (vancomycin susceptible enterococci, VSE); experiment: MIC by conventional culture based method
[2] = system: E. faecalis 31970 (vancomycin susceptible enterococci, VSE); experiment: SRS metabolic imaging of glucose-d7 uptake (C-D signal) for AST; conditions: for susceptibility of E. faecalis 31970 based on metabolic imaging method: 20 μg/mL antibiotic; for C-D signal in SRS imaging versus control: E. faecalis 31970, 20 μg/mL antibiotic; for intensity of C-D component versus control: 1 hour
Protocol: (§1) The SRS imaging based method of the present disclosure can determine the susceptibility of bacteria to antibiotics within about […]. A bacteria solution for testing through SRS imaging and placement on the agarose gel pad can be prepared by cultivating bacteria in a broth, such as a Lysogeny broth (LB) (LB Broth, Sigma Aldrich) for about two hours to reach to log phase. The bacteria can then added in a ratio between about 0.1:100 to about a 10:100 ratio to 2 mL of various types of medium. In one exemplary embodiment, the ration can be about 1:100 to 2 ML of medium, such as a specialized medium. Some exemplary embodiments can use D2O medium or other specialized medium herein referred to as M9 medium wherein about a 2% glucose-d7 can be only carbon source. The M9 medium is developed and selected to maximize the signal within the C-D vibrational region. To measure the resistance of a given bacteria to an antibiotic, the antibiotic is added to the specialized medium to a concentration of about 20 μg/mL. After at least about 30 minutes of incubation about 500 μl of the sample is centrifuged, washed twice with purified water, and deposited to an agarose gel pad for imaging. An imaging setup of illustrated in FIG. 1A can be utilized to process the sample.
Referring now to FIG. 2A-D the method of the present disclosure can generally be performed in an exemplary method to determine effectiveness utilizing an antibiotic, such as vancomycin. Accordingly, the method can be utilized to examine the influence of antibiotics to the metabolic uptake of glucose-d7 by bacteria. Vancomycin susceptible (VSE) and Vancomycin resistant (VRE) enterococci E. faecalis can first be grown to a log phase by cultivating in LB medium for about 2 hours, then VSE and VRE can further be cultivated in M9 medium with about 2% glucose-d7 as the sole carbon source, respectively, with the addition of vancomycin to a final concentration of about 20 μg/mL (FIG. 2A). Other embodiments can include various types of carbon source as a sole carbon source or in combination with other carbon or nutrient sources. One exemplary embodiment can use a nutrient source of about 0-100% deuterium dioxide. Similarly, the carbon source can include a combination of deuterium dioxide and glucose-d7. This concentration was chosen because it is between the minimum inhibitory concentrations (MICS) of vancomycin to VSE (MIC is 1 μg/mL) and to VRE (MIC is >100 μg/mL). For control, VSE and VRE were cultivated in glucose-d7 containing medium without the addition of vancomycin (FIG. 2a). After 30 minutes (0.5 hours) to 3 hours incubation, each sample was centrifuged and washed twice in water, and then deposited on an agarose gel pad for SRS imaging.
(§2) To quantify the C-D content of the E. faecalis cells and the response of bacteria to the treatment of antibiotics, multivariate curve resolution (MCR) analysis is applied to retrieve the C-D component from hyperspectral SRS imaging data shown in FIGS. 3A-D. MCR is a bilinear model which decomposes the experimental data matrix that contains spectrum at each pixel into concentration maps and spectra of principle components. With an initial estimated spectrum of each component as the input, MCR is calculated and optimized iteratively using alternating least squares algorithm until convergence is reached. The output of MCR contains the concentration map and spectrum of each component. Referring now to FIG. 3A-D the spectra of glucose-d7, which represented the C-D component, and gel, which represented the background, were used as the input components. After MCR analysis, C-D component can be clearly separated from the background and utilized to quantify the contents of the collected SRS imaging data.
The MIC, defined as the lowest concentration of antibiotic that is able to inhibit the visible growth of bacteria in vitro, can be determined by our metabolic imaging method. […]

[3] = system: vancomycin resistant (VRE) enterococci E. faecalis; experiment: as above; conditions: for intensity of C-D component after MCR versus control: 20 μg/ml
Protocol: as §1, with “sample. […]” for “sample.”
as §2, with “The output of MCR contains the concentration map and spectrum of each component. Referring now to FIG. 3A-D the spectra of glucose-d7, which represented the C-D component, and gel, which represented the background, were used as the input components.” left out, “data. […]” for “data.”

[4] = system: vancomycin resistant (VRE) enterococci E. faecalis; experiment: MIC by conventional culture based method; conditions: Enterococcus
E. coli = system: E. coli
Protocol: (§3) The toxicity of D2O was first tested on bacteria by measuring the growth in a D2O containing medium. Three types of bacteria (E. coli, S. aureus, and P. aeruginosa) were cultured at different concentrated D2O containing LB medium, and their growth were monitored with optical density (OD) measurement at about 600 nm.

P. aeruginosa [5] = system: P. aeruginosa
Protocol: as §3

S. aureus = system: S. aureus
Protocol: as §3

[6] = system: S. aureus strain susceptible to oxacillin; experiment: SRS metabolic imaging of deuterated glucose (C-D peak); conditions: 1.3 μg/ml oxacillin, 0.5 h, glucose-d2 containing medium
Protocol: (§4) The metabolic activity of glucose-d2 can be observed in single bacterium cultivated in glucose-d2 containing medium for 0.5 h by SRS imaging (FIG. 11B). […] Therefore, susceptible and resistant S. aureus can be determined in about 0.5 h.

[7] = system: S. aureus strain resistant to oxacillin; experiment: as above; conditions: 1.3 μg/ml oxacillin, 0.5 h, glucose-d2 containing medium
Protocol: as §4

[8] = system: S. aureus strain susceptible to oxacillin; experiment: MIC of oxacillin; conditions: Staphylococcus aureus
E. faecalis 31972 = system: E. faecalis 31972
Protocol: (§5) To test the toxicity of glucose-d7 to bacteria, E. faecalis 31970 and 31972 were cultivated in custom-made M9 medium, one with normal glucose for control and the other with glucose-d7. The growth of bacteria was monitored by optical density (OD) measurement at 600 nm for up to 22 hours (FIG. 9). […] FIG. 9A illustrates OD measurement for vancomycin susceptible enterococci cultured in M9 medium with either 2% normal glucose or 2% glucose-d7, whereas FIG. 9B illustrates OD measurement for vancomycin resistant enterococci cultured in M9 medium with either 2% normal glucose or 2% glucose-d7.

E. faecalis 31970 = system: E. faecalis 31970
Protocol: as §5

P. aeruginosa [9] = experiment: SRS imaging of D2O metabolic activity (C-D signal at 2162 cm-1); conditions: for C-D signal / metabolic activity of D2O in SRS imaging: 10 minutes to 3 hours; for average C-D signal intensity relative to about 65% of control threshold: all time points about 10 minutes to about 3 hours
Protocol: A 70% D2O containing LB medium was provided to cultivate bacteria, and used P. aeruginosa as a model to test whether the D2O metabolic activity in single bacterium can be monitored by SRS microscope. P. aeruginosa was separately cultivated in normal LB and 70% D2O containing LB medium for about 2 hours, and then centrifuged and washed in water to remove the culture medium. […] To image single bacterium, bacteria were further diluted and deposited on an agarose gel pad. […] The results were confirmed by SRS spectrum (FIG. 16C) obtained through temporal tuning of chirped pump and Stokes femtosecond pulses.
A time lapse of D2O metabolic activity can be carried out in single P. aeruginosa with femtosecond SRS imaging. P. aeruginosa was first cultivated in about 70% D2O containing LB medium for up to about 3 hours, at different time points, about 500 μl bacteria were centrifuged, washed and deposited on agarose gel pad for imaging. […] To view individual bacterium more clearly, the images in FIG. 18A were further zoomed in FIG. 18B.
(§6) P. aeruginosa were cultivated in 70% D2O containing LB medium, with the addition of 20 μg/ml gentamicin or cefotaxime to determine the antibiotic effect on the metabolic activity of D2O in bacteria, and wherein it is suitable for use of rapid AST with SRS imaging. The susceptibility of P. aeruginosa were pre-determined to be susceptible to gentamicin and resistant to cefotaxime at this concentration using conventional culture-based microdilution method. […] This filamentary formation may also be observed when P. aeruginosa was treated with other β-lactam antibiotics 10.
The D2O metabolic activity of bacteria can be used to rapid differentiate the antibiotic susceptibility of bacteria and examined using the average C-D signal intensity of bacteria being compared between three groups shown in FIGS. 19C-H, the control without antibiotics treatment (FIG. 18A), treated with gentamicin (FIG. 19A), and treated with cefotaxime (FIG. 19B). […] Therefore, the susceptibility of P. aeruginosa to gentamicin and cefotaxime can be determined in as short as about 10 minutes.
The SRS metabolic imaging method can determine the minimal inhibitory concentration (MIC) of antibiotics to bacteria and was done by cultivating P. aeruginosa in about 70% D2O containing LB medium for about 1 hour with the addition of gentamicin with serial diluted concentration. […] With the 65% intensity threshold, the MIC was determined to be about 8 μg/ml with SRS-based D2O metabolic imaging method, which is consistent to the result determined by the conventional culture-based method.

P. aeruginosa [10] = experiment: conventional culture-based microdilution method; conditions: 20 μg/ml
Protocol: as §6

[11] = Enterococcus faecalis, conventional culture based method, E. faecalis 31970 (VSE), read-out: MIC

## CC(=O)NC[C@H]1CN(c2ccc(N3CCOCC3)c(F)c2)C(=O)O1 [linezolid]
[1]; [11]
  MIC: 2 µg/mL (≈ 5.93 µM)
[2]; 1 h
  susceptibility of E. faecalis 31970 based on metabolic imaging method: susceptible
  C-D signal in SRS imaging versus control: significant reduction

## CN[C@H](CC(C)C)C(=O)N[C@H]1C(=O)N[C@@H](CC(N)=O)C(=O)N[C@H]2C(=O)N[C@H]3C(=O)N[C@H](C(=O)N[C@H](C(=O)O)c4cc(O)cc(O)c4-c4cc3ccc4O)[C@H](O)c3ccc(c(Cl)c3)Oc3cc2cc(c3O[C@@H]2O[C@H](CO)[C@@H](O)[C@H](O)[C@H]2O[C@H]2C[C@](C)(N)[C@H](O)[C@H](C)O2)Oc2ccc(cc2Cl)[C@H]1O [vancomycin]
[1]; Enterococcus faecalis
  MIC: 1 µg/mL (≈ 0.69 µM)
[3]; 20 μg/mL vancomycin, 30 minutes
  normalized SRS spectra, signal intensity in C-D region with and without treatment: remain the same
[3]; 0.5 to 3 h
  intensity of C-D component after MCR versus control: did not significantly reduce
[3]; 3 h (p-value 5×10^−4)
  intensity of C-D component after MCR versus control: higher intensity of C-D component than the control group
[2]; 1 h
  susceptibility of E. faecalis 31970 based on metabolic imaging method: susceptible
  C-D signal in SRS imaging versus control: significant reduction
[2]; 20 μg/mL vancomycin, 30 minutes in glucose-d7 medium, fraction of control
  intensity of C-D signal for individual VSE relative to control group: about ⅓
[2]; Enterococcus faecalis, 1 h, read-out: MIC determined by metabolic imaging method
  MIC: 2 µg/mL
[2]; VSE, 1 μg/mL vancomycin
  intensity of C-D component versus control: did not reduce
[2]; VSE, 2 μg/mL or higher vancomycin
  intensity of C-D component versus control: significantly reduced
[2]; VSE, 20 μg/mL vancomycin, 30 minutes
  normalized SRS spectra, signal intensity in C-D region versus control: reduced the signal intensity
[2]; VSE, 20 μg/ml, 0.5, 1 and 3 h (p 2.2×10^−13, 2.0×10^−11, 3.9×10^−15)
  intensity of C-D component after MCR versus control: significantly reduced
[4]
  MIC: > 100 µg/mL

## CC[C@H]1OC(=O)[C@H](C)[C@@H](O[C@H]2C[C@@](C)(OC)[C@@H](O)[C@H](C)O2)[C@H](C)[C@@H](O[C@@H]2O[C@H](C)C[C@H](N(C)C)[C@H]2O)[C@](C)(O)C[C@@H](C)C(=O)[C@H](C)[C@@H](O)[C@]1(C)O [erythromycin]
[1]; [11]
  MIC: > 256 µg/mL
[2]; 1 h
  susceptibility of E. faecalis 31970 based on metabolic imaging method: resistant

## [2H]O[2H] [D2O]
E. coli
  toxicity to growth: did not show significant toxicity
P. aeruginosa [5]
  growth of P. aeruginosa: initially slowed down
S. aureus
  toxicity to growth: did not show significant toxicity

## Cc1onc(-c2ccccc2)c1C(=O)N[C@@H]1C(=O)N2[C@@H]1SC(C)(C)[C@@H]2C(=O)O [oxacillin]
[6]
  C-D peak versus untreated control: reduction in C-D peak
[7]
  C-D peak versus untreated control: no significant change
[8]
  MIC: 0.0625 µg/mL

## CCCCCCCCCC(=O)N[C@@H](Cc1c[nH]c2ccccc12)C(=O)N[C@H](CC(N)=O)C(=O)N[C@@H](CC(=O)O)C(=O)N[C@@H]1C(=O)NCC(=O)N[C@@H](CCCN)C(=O)N[C@@H](CC(=O)O)C(=O)N[C@H](C)C(=O)N[C@@H](CC(=O)O)C(=O)NCC(=O)N[C@H](CO)C(=O)N[C@@H]([C@H](C)CC(=O)O)C(=O)N[C@@H](CC(=O)c2ccccc2N)C(=O)O[C@@H]1C [daptomycin]
[1]; [11]
  MIC: 32 µg/mL (≈ 19.7 µM)
[2]; 1 h
  susceptibility of E. faecalis 31970 based on metabolic imaging method: resistant

## [2H]C(=O)[C@]([2H])(O)[C@@]([2H])(O)[C@]([2H])(O)[C@]([2H])(O)C([2H])([2H])O [glucose-d7]
E. faecalis 31972
  toxicity to bacterial growth: no toxicity
E. faecalis 31970
  toxicity to bacterial growth: no toxicity

## gentamycin
P. aeruginosa [9]; 20 μg/ml, 70% D2O LB medium
  C-D signal / metabolic activity of D2O in SRS imaging: significantly reduced
P. aeruginosa [9]; 20 μg/ml
  average C-D signal intensity relative to about 65% of control threshold: always below the threshold
P. aeruginosa [9]; about 1 hour, 70% D2O LB medium
  gentamicin concentration at which D2O metabolic activity was inhibited: ≥ 8 µg/mL
P. aeruginosa [9]; about 1 hour, 70% D2O LB medium, 65% intensity threshold
  MIC with SRS-based D2O metabolic imaging method: about 8 μg/ml
[1]; conventional culture based method, E. faecalis 31970 (VSE)
  MIC: >256 µg/mL
[2]; 1 h
  susceptibility of E. faecalis 31970 based on metabolic imaging method: resistant
P. aeruginosa [10]
  susceptibility of P. aeruginosa pre-determined by microdilution: susceptible

## CO/N=C(\C(=O)N[C@@H]1C(=O)N2C(C(=O)O)=C(COC(C)=O)CS[C@H]12)c1csc(N)n1 [cefotaxime]
P. aeruginosa [9]; 20 μg/ml, 70% D2O LB medium
  bacterial morphology on cultivation with antibiotic: tends to form long rods
  C-D signal / metabolic activity of D2O in SRS imaging: active metabolic activity of D2O
P. aeruginosa [9]; 20 μg/ml
  average C-D signal intensity relative to about 65% of control threshold: always above the threshold
P. aeruginosa [10]
  susceptibility of P. aeruginosa pre-determined by microdilution: resistant
